Measured values taken from US20110294810A1, “SUBSTITUTED (PYRIDYL)-AZINYLAMINE DERIVATIVES AS PLANT PROTECTION AGENTS” (priority 2008, published 2011).

Experiment: Measurement of logP values by HPLC on reversed phase columns (EEC directive 79/831 Annex V.A8)
Type: physicochemical
Settings: for chromatographic logP: reversed phase HPLC column, read-out: log p
[1] = HPLC on reversed phase columns, usually LC-MS at pH 2.7 with 0.1% formic acid in water and acetonitrile, linear gradient 10% to 95% acetonitrile

Structure (SMILES)	log p (pH 2.7)	further results
NCc1cc(-c2ccnc(Nc3cccc(Cl)c3)n2)ccn1 [Compound A1, 4-[2-(aminomethyl)pyridin-4-yl]-N-(3-chlorophenyl)pyrimidin-2-amine]		chromatographic logP [1]: 1.52
CC(C)C(=O)NCc1cc(-c2ccnc(Nc3cccc(Cl)c3)n2)ccn1 [Compound A2, N-[(4-{2-[(3-chlorophenyl)amino]pyrimidin-4-yl}pyridin-2-yl)methyl]-2-methyl propanamide]	2.52	
CCCC(=O)NCc1cc(-c2ccnc(Nc3cccc(Cl)c3)n2)ccn1 [Compound A5]	2.51	
CCC(C)CNC(=S)NCc1cc(-c2ccnc(Nc3cccc(Cl)c3)n2)ccn1 (stereo not drawn) [Compound A6, 1-[(4-{2-[(3-chlorophenyl)amino]pyrimidin-4-yl}pyridin-2-yl)methyl]-3-(2-methylbutyl)thiourea]		chromatographic logP [1]: 3.59
O=C(NCc1cc(-c2ccnc(Nc3cccc(Cl)c3)n2)ccn1)C1CCC1 [Compound A7]	2.69	
CC(C)CC(=O)NCc1cc(-c2ccnc(Nc3cccc(Cl)c3)n2)ccn1 [Compound A9]	2.84	
CC(C)=CC(=O)NCc1cc(-c2ccnc(Nc3cccc(Cl)c3)n2)ccn1 [Compound A10]	2.75	
O=C(NCc1cc(-c2ccnc(Nc3cccc(Cl)c3)n2)ccn1)C1CC1 [Compound A12]	2.39	
CC(C)(C)C(=O)NCc1cc(-c2ccnc(Nc3cccc(Cl)c3)n2)ccn1 [Compound A13]	2.88	
ClCc1cc(-c2ccnc(Nc3cccc(Cl)c3)n2)ccn1 [Compound A15, 4-[2-(chloromethyl)pyridin-4-yl]-N-(3-chlorophenyl)pyrimidin-2-amine]		chromatographic logP [1]: 3.46
COCC(=S)NCc1cc(-c2ccnc(Nc3cccc(Cl)c3)n2)ccn1 [Compound A16]	3.29	
Clc1cccc(Nc2nccc(-c3ccnc(CN4CCCCC4)c3)n2)c1 [Compound A17, N-(3-chlorophenyl)-4-[2-(piperidin-1-ylmethyl)pyridin-4-yl]pyrimidin-2-amine]		chromatographic logP [1]: 1.81
CC(=O)OCc1cc(-c2ccnc(Nc3cccc(Cl)c3)n2)ccn1 [Compound A18]	3.02	
CCCCCC(=O)OCc1cc(-c2ccnc(Nc3cccc(Cl)c3)n2)ccn1 [Compound A19]	4.73	
CC(C)CC(=O)OCc1cc(-c2ccnc(Nc3cccc(Cl)c3)n2)ccn1 [Compound A21]	4.26	
COCc1cc(-c2ccnc(N(C)c3cccc(Cl)c3)n2)ccn1 [Compound A25, N-(3-chlorophenyl)-4-[2-(methoxymethyl)pyridin-4-yl]-N-methylpyrimidin-2-amine]		chromatographic logP [1]: 3.02
CC(=O)OCc1cc(-c2ccnc(N(C(C)=O)c3cccc(Cl)c3)n2)ccn1 [Compound A26]	2.35	
CC(C)C(=O)OCc1cc(-c2ccnc(Nc3cccc(Cl)c3)n2)ccn1 [Compound A31]	3.89	
C#CCCCC(=O)OCc1cc(-c2ccnc(Nc3cccc(Cl)c3)n2)ccn1 [Compound A33]	3.73	
O=C(OCc1cc(-c2ccnc(Nc3cccc(Cl)c3)n2)ccn1)C1CCCC1 [Compound A36]	4.41	
C=CCC(=O)OCc1cc(-c2ccnc(Nc3cccc(Cl)c3)n2)ccn1 [Compound A37, (4-{2-[(3-chlorophenyl)amino]pyrimidin-4-yl}pyridin-2-yl)methyl but-3-enoate]		chromatographic logP [1]: 3.64
CCCCN(C)Cc1cc(-c2ccnc(Nc3cccc(Cl)c3)n2)ccn1 [Compound A38]		log p [1]: 1.97
CN(C)Cc1cc(-c2ccnc(Nc3cccc(Cl)c3)n2)ccn1 [Compound A41]	1.57	
CN(Cc1cc(-c2ccnc(Nc3cccc(Cl)c3)n2)ccn1)CC1OCCO1 [Compound A44]		log p [1]: 1.79
CC1(C)CCCN(Cc2cc(-c3ccnc(Nc4cccc(Cl)c4)n3)ccn2)C1 [Compound A45]		log p [1]: 2.1
CC1CCCN1Cc1cc(-c2ccnc(Nc3cccc(Cl)c3)n2)ccn1 (stereo not drawn) [Compound A46]		log p [1]: 1.76
Clc1cccc(Nc2nccc(-c3ccnc(CN4CC=CC4)c3)n2)c1 [Compound A49]	1.67	

Structure (SMILES)	log p (pH 2.7)	further results
CN(Cc1cc(-c2ccnc(Nc3cccc(Cl)c3)n2)ccn1)C1CCCC1 [Compound A51]	1.95	
CCN(C)Cc1cc(-c2ccnc(Nc3cccc(Cl)c3)n2)ccn1 [Compound A52]	1.66	
CCN(CC)Cc1cc(-c2ccnc(Nc3cccc(Cl)c3)n2)ccn1 [Compound A53]	1.78	
CN(C)CCN(C)Cc1cc(-c2ccnc(Nc3cccc(Cl)c3)n2)ccn1 [Compound A58]		log p [1]: 1.44
C=CCN(C)Cc1cc(-c2ccnc(Nc3cccc(Cl)c3)n2)ccn1 [Compound A59]		log p [1]: 1.75
CC(C)CN(C)Cc1cc(-c2ccnc(Nc3cccc(Cl)c3)n2)ccn1 [Compound A60]		log p [1]: 1.93
CCC(C)N(C)Cc1cc(-c2ccnc(Nc3cccc(Cl)c3)n2)ccn1 (stereo not drawn) [Compound A61]		log p [1]: 1.88
CN1CCC(N(C)Cc2cc(-c3ccnc(Nc4cccc(Cl)c4)n3)ccn2)CC1 [Compound A63]		log p [1]: 1.07
CN(CCC#N)Cc1cc(-c2ccnc(Nc3cccc(Cl)c3)n2)ccn1 [Compound A64]	1.74	
CCCN(C)Cc1cc(-c2ccnc(Nc3cccc(Cl)c3)n2)ccn1 [Compound A65]	1.81	
CCSCc1cc(-c2ccnc(Nc3cccc(Cl)c3)n2)ccn1 [Compound A69, N-(3-chlorophenyl)-4-{2-[(ethylsulfanyl)methyl]pyridin-4-yl}pyrimidin-2-amine]		chromatographic logP [1]: 3.64
CCCSCc1cc(-c2ccnc(Nc3cccc(Cl)c3)n2)ccn1 [Compound A70]	3.48	
CCCCSCc1cc(-c2ccnc(Nc3cccc(Cl)c3)n2)ccn1 [Compound A71]	4.56	
COCCOCCSCc1cc(-c2ccnc(Nc3cccc(Cl)c3)n2)ccn1 [Compound A73]	3.11	
N#CCCCCSCc1cc(-c2ccnc(Nc3cccc(Cl)c3)n2)ccn1 [Compound A76]	3.35	
CCC(C)CSCc1cc(-c2ccnc(Nc3cccc(Cl)c3)n2)ccn1 (stereo not drawn) [Compound A77]	5	
COCC(=O)NC(C)c1cc(-c2ccnc(Nc3cccc(Cl)c3)n2)ccn1 (stereo not drawn) [Compound A80]	2.68	
COCC(=O)NC(C)c1cc(-c2ccnc(N(C(=O)COC)c3cccc(Cl)c3)n2)ccn1 (stereo not drawn) [Compound A81]	2.11	
Clc1cccc(Nc2nccc(-c3ccnc(CSCc4ccccc4)c3)n2)c1 [Compound A83]	4.39	
CC(C)CSCc1cc(-c2ccnc(Nc3cccc(Cl)c3)n2)ccn1 [Compound A84]	4.54	
C=C(C)C(=O)OCc1cc(-c2ccnc(Nc3cccc(Cl)c3)n2)ccn1 [Compound A87]	3.78	
C=C(C)CC(=O)OCc1cc(-c2ccnc(Nc3cccc(Cl)c3)n2)ccn1 [Compound A88]	3.92	
CC(C)=CC(=O)OCc1cc(-c2ccnc(Nc3cccc(Cl)c3)n2)ccn1 [Compound A89]	4.01	
CCCC(=O)NC(C)c1cc(-c2ccnc(Nc3cccc(Cl)c3)n2)ccn1 (stereo not drawn) [Compound A90]	2.8	
CC(c1cc(-c2ccnc(N(C(=O)C3CC3)c3cccc(Cl)c3)n2)ccn1)N(C(=O)C1CC1)C(=O)C1CC1 (stereo not drawn) [Compound A91]	3.71	
CC(NC(=O)C1CC1)c1cc(-c2ccnc(N(C(=O)C3CC3)c3cccc(Cl)c3)n2)ccn1 (stereo not drawn) [Compound A92]	2.49	
CC(NC(=O)C1CC1)c1cc(-c2ccnc(Nc3cccc(Cl)c3)n2)ccn1 (stereo not drawn) [Compound A93]	2.64	
